According to article PMC11638965, “Leveraging Dual-Ligase Recruitment to Enhance Protein Degradation via a Heterotrivalent Proteolysis Targeting Chimera” (Journal of the American Chemical Society, 2024):
Entries after “also recorded” stand apart in the source; their conditions may differ. Like-named read-outs stand apart in the source and are kept apart here.

Tests used:
[1] = system: RKO CRBN KO cells; test: Cell viability assay (CellTiter-Glo); format: cell-based, human; details: 500 pM to 10 μM, 3 days (Figure 10, Table S6)
[2] = system: RKO VHL KO cells; test: Cell viability assay (CellTiter-Glo); format: cell-based, human
Procedure: (§1) RKO WT, VHL KO, CRBN KO and CRBN/VHL dKO cells were cultured in Dulbecco’s modified Eagle’s medium supplemented with 10% FCS and 1% penicillin–streptomycin. RKO CRBN KO and VHL KO were generated previously.[45] RKO CRBN/VHL dKO cells were generated by transiently expressing pSpCas9(BB)-2A-GFP (PX458) (Addgene 48138) loaded with a short guide RNA (sgRNA) targeting VHL (Fwd: […], Rev: […]) in RKO CRBN KO cells. Clones were single cell seeded and checked for VHL and CRBN double deletion via Western blot or PCR on genomic DNA (gDNA).
(§2) Cells were seeded in 96-well plates at a cell density of 3750 cells per well and treated for 3 days with DMSO or drug at ten √10 serial diluted concentrations. Starting concentration for all drugs was 10 μM, and each treatment was performed in biological triplicates. Cell viability was assessed using the CellTiter-Glo assay (CellTiter-Glo Luminescent Cell Viability Assay, Promega G7573) according to manufacturer instructions. Luminescence signal was measured on a Multilabel Plate Reader Platform Victor X3 model 2030 (PerkinElmer). Survival curves and EC50 values were determined using GraphPad Prism v.10.0.3 by fitting a nonlinear regression to the log10-transformed drug concentration and the relative viability after normalization of each data point to the mean luminescence of the lowest drug concentration.

[3] = system: RKO CRBN/VHL dKO cells; test: Cell viability assay (CellTiter-Glo); format: cell-based, human
Procedure: as §1, §2

[4] = target: BRD4 (Homo sapiens, UniProt O60885); test: Live cell kinetic HiBiT degradation assay, HiBiT-BRD4 HEK293 cells (parental, CRBN KO, VHL KO); format: cell-based; details: parental, CRBN KO and VHL KO HiBiT-BRD4 HEK293 cells (Figure S5); listed as 93
Procedure: HEK293 HiBiT-BRD2 (LgBiT stable), HEK293 HiBiT-BRD3 (LgBiT stable), and HEK293 HiBiT-BRD4 (LgBiT stable) were created using CRISPR/Cas9 to insert at HiBiT tag at the N-terminal genomic loci of BRD2, BRD3, or BRD4 in a cell line stably expressing LgBiT protein as described previously.[23]
For kinetic degradation experiments, HEK293 HiBiT-BRD2, 3, or 4 (LgBiT stable) cells and HEK293 HiBiT-BRD4 (LgBiT) CRBN KO and VHL KO cells were plated at 20,000 cells/well in DMEM +10% FBS in white 96-well tissue culture plates and allowed to adhere overnight. The next day, media was removed and 90 μL of prewarmed CO2-independent medium (Gibco) containing Endurazine (Promega) at a 1:100 dilution from stock was added. Plates were incubated at 37 °C for 3 h to allow luminescence to equilibrate. A threefold dilution series of each PROTAC at 10x the desired final concentration was prepared (with the amount of DMSO in each treatment condition kept constant). After luminescence equilibration, a preread luminescence measurement was taken (prior to compound addition) to allow for baseline normalization to account for possible plating differences. Cells were then treated with 10 μL of the prepared PROTAC dilution series (in triplicate or quadruplicate). Treated plates were placed in a GloMax Discover luminometer (Promega) prewarmed to 37 °C and luminescence measurements were obtained every 7 min for 24 h. Kinetic degradation plots were obtained by first normalizing time course luminescence readings in each well to the preread measurement, then to the average value of the DMSO only control at each time point. Data was analyzed using GraphPad Prism (version 8) and excel. Dmax values were identified as the lowest luminescence reading in each well. Rate constant values were calculated using a one phase exponential decay Y = (Y0-Plateau) e(K*^X) + Plateau using Prism (Y0 constrained to 1). Dmax 50 values were calculated by plotting Dmax as a function of concentration, then fitting plots using the following equation: [drawing 1] to determine IC50.
HiBiT-BRD4 (LgBiT stable) HEK293 cells (Promega) were used to generate both VHL KO HiBiT-BRD4 (LgBiT stable) and CRBN KO HiBiT-BRD4 (LgBiT stable) cell lines. For VHL, gRNAs targeting exon 1 ([…]) and exon 2 ([…]) and for CRBN, gRNAs targeting exon 3 ([…]) and exon 6 ([…]) were purchased from IDT DNA (Table 5). For each gRNA, tracrRNA/crRNA duplexes were formed by combining 10 μL of 100 μM Alt-R […] (IDT), 100 μM Alt-R crRNA (IDT) and heating at 95C for 5 min, then were allowed to cool to room temp for 20 min. RNPs were then formed by combining 75 pmol Cas9 (IDT) with 2.4 μL total of prepared tracrRNA/crRNA complex (1.2 μL for each gRNA targeting each exon). Cells were then trypsinized and resuspended at 10,000,000 cells/mL in 1 mL of Mirus Ingenio electroporation solution. Three μL of 100 μM electroporation enhancer (Mirus) was added, along with 3 μL of RNP solution. Cells were electroporated in 2 mm cuvettes using a BioRad system (190 V, 950 μF, infinite resistance) and were then plated in a T75 flask in full growth medium to allow for recovery. After recovery from electroporation, knockout pools were sorted for single cells in 96-well tissue culture treated plates. Clonal populations which expanded from single cells were then screened for loss of function of VHL by treating with MZ1, or loss of function of CRBN by treating with dBET6, using a HiBiT-BRD4 luminescent readout assay. Genomic DNA isolated from candidate clones was then PCR-amplified (Table of primers below), Gibson-assembled into a pF1A plasmid backbone, transformed into E. coli., and then Sanger sequenced to confirm presence of indels in the targeted exons. […] VHL exon 3 carried a 19 bp deletion on one allele, and a 1 bp insertion on the other allele, both occurring after the premature stop codon in exon 1.

[5] = system: RKO WT cells; test: cells; format: cell-based, human
Procedure: as §1
as §2, with “Starting concentration for all drugs was 10 μM, and each treatment was performed in biological triplicates.” left out

[6] = system: K562 cells; test: Cell viability assay (CellTiter-Glo); format: cell-based, human; details: Homo sapiens; WT K562, 5.12 pM to 10 uM, n = 3 (Table S4)
Procedure: as §2, with “[…],” for “3750 cells per well and treated for 3 days with DMSO or drug at ten √10 serial diluted concentrations. Starting concentration for all drugs was 10 μM,”

[7] = system: KBM7 cells; test: Cell viability assay (CellTiter-Glo); format: cell-based, human; details: Homo sapiens, KBM-7; WT KBM7, 5.12 pM to 10 uM, n = 3 (Table S4)
Procedure: as §2, with “[…],” for “3750 cells per well and treated for 3 days with DMSO or drug at ten √10 serial diluted concentrations. Starting concentration for all drugs was 10 μM,”

[8] = system: RKO CRBN KO cells; test: Cell viability assay (CellTiter-Glo); format: cell-based, human; details: Homo sapiens, 72 h, 316 pM to 10 μM, 3 days, n = 6 (Figure 3C, Table S1)
Procedure: as §1, §2

[9] = Homo sapiens, 72 h, 500 pM to 10 μM, 3 days (Figure 10, Table S6), read-out: EC50 RKO WT

SMILES	EC50 ([1]; listed as 93) [nM]	EC50 ([1]; Homo sapiens, 72 h) [nM]	EC50 ([2]; 500 pM to 10 μM, 3 days (Figure 10, Table S6)) [nM]	EC50 ([2]; Homo sapiens, 72 h, 500 pM to 10 μM, 3 days (Figure 10, Table S6)) [nM]	EC50 ([3]; 500 pM to 10 μM, 3 days (Figure 10, Table S6), read-out: EC50 RKO CRBN/VHL dKO) [nM]	EC50 ([3]; Homo sapiens, 72 h, 500 pM to 10 μM, 3 days (Figure 10, Table S6), read-out: EC50 RKO CRBN/VHL dKO) [nM]	on-target BRD4 degradation activity (in words) [4]	EC50 ([5]; 500 pM to 10 μM, 3 days (Figure 10, Table S6), listed as 93, read-out: EC50 RKO WT) [nM]	EC50 [5, 9] [nM]	EC50 [6] [nM]	EC50 [7] [nM]	EC50 ([2]; Homo sapiens, 72 h, 316 pM to 10 μM, 3 days, n = 6 (Figure 3C, Table S1)) [nM]	EC50 ([2]; Homo sapiens, Figure 10 experiment) [nM]	EC50 ([3]; Homo sapiens, Figure 10 experiment, read-out: EC50 RKO VHL/CRBN dKO) [nM]	EC50 ([3]; Homo sapiens, both VHL and CRBN knocked out (Figure 3C), read-out: EC50 RKO CRBN/VHL dKO) [nM]	EC50 [8] [nM]	EC50 ([5]; Homo sapiens, 72 h, 316 pM to 10 μM, 3 days, n = 6 (Figure 3C, Table S1), read-out: EC50 RKO WT) [nM]	EC50 ([5]; Homo sapiens, RKO WT, 316 pM to 10 μM, n = 6, combination: dBET6 and MZ1 each from 5 μM (Table S7), read-out: EC50 RKO) [nM]	EC50 ([5]; Homo sapiens, WT RKO, 316 pM to 10 μM, n = 3 (Table S4), read-out: EC50 RKO) [nM]
Cc1ncsc1-c1ccc([C@H](C)NC(=O)[C@@H]2C[C@@H](O)CN2C(=O)[C@@H](NC(=O)COCC(C)(COCCOCCOCCNc2cc3c(cc2F)C(=O)N(C2CCC(=O)N(C)C2=O)C3=O)COCCOCCOCCOC(=O)C[C@@H]2N=C(c3ccc(Cl)cc3)c3c(sc(C)c3C)-n3c(C)nnc32)C(C)(C)C)cc1 (mixture of isomers) [neg-AB3067 (93), (17S)-11-((2-(2-(2-((6-fluoro-2-(1-methyl-2,6-dioxopiperidin-3-yl)-1,3-dioxoisoindolin-5-yl)amino)ethoxy)ethoxy)ethoxy)methyl)-17-((2S,4R)-4-hydroxy-2-(((S)-1-(4-(4-methylthiazol-5-yl)phenyl)ethyl)carbamoyl)pyrrolidine-1-carbonyl)-11,18,18-trimethyl-15-oxo-3,6,9,13-tetraoxa-16-azanonadecyl 2-((S)-4-(4-chlorophenyl)-2,3,9-trimethyl-6H-thieno[3,2-f][1,2,4]triazolo[4,3-a][1,4]diazepin-6-yl)acetate]	105	~106	~400	391	~400	420	inactive in VHL KO cells; also recorded: decreased relative to 27 in parental and CRBN KO cells	107	~106	–	–	–	–	–	–	–	–	–	–
Cc1ncsc1-c1ccc(CNC(=O)[C@@H]2C[C@@H](O)CN2C(=O)[C@@H](NC(=O)COCCOCCOCCNC(=O)C[C@@H]2N=C(c3ccc(Cl)cc3)c3c(sc(C)c3C)-n3c(C)nnc32)C(C)(C)C)cc1 [MZ1, reference compound]	–	136	–	–	–	–	–	–	160	216	66.2	> 10000	> 5000	> 5000	> 10000	181	212	152	188
